These are literature values, as cited in patent publication US20050101629A1, “Compositions of a chromene cyclooxygenase-2 selective inhibitor and a cholinergic agent for the treatment of reduced blood flow or trauma to the central nervous system” (Pharmacia Corporation, priority 2003, published 2005).

The conditions of this data set: administered to subjects following stroke; Adibhatla et al. (2002) J. Neurochem. 80:12-23.

SMILES strings stand for the structures.

Regarding `C[N+](C)(C)CCOP(=O)(O)OP(=O)(O)OC[C@H]1O[C@@H](n2ccc(N)nc2=O)[C@H](O)[C@@H]1O` [citicoline], the behavioral parameters result is reported as “improvement in behavioral parameters” and the infarction volume entry is recorded as “decrease in infarction volume”.
